Data reported in patent US20200024278A1, “COMPOSITION COMPRISING ANTIBIOTIC COMPOUND AND AN HETEROCYCLIC COMPOUND AND THEIR USE IN PREVENTING OR TREATING BACTERIAL INFECTIONS” (MUTABILIS, priority 2016, published 2020).
Read-outs that look alike come from different tables or passages of the source.

Experiments:
Assay in all cases: MIC, broth microdilution (CLSI), substance alone or ATB combined with compound at 4 or 8 μg/mL
ECL P99 = format: cell-based, E. cloacae; settings: ECL P99; for MIC: Enterobacter cloacae
In short: (§1)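 Per CLSI-M7-A7, MICs are determined in cation-adjusted Mueller-Hinton broth with a final inoculum of 5·10^5 CFU/mL. Plates incubate 16-20 h at 35° C in air and are read by eye. Fosfomycin assays carry 25 μg/ml glucose-6-phosphate.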

PAE 105250 = format: cell-based, P. aeruginosa; settings: PAE 105250
In short: as §1

PAE UFR48 = format: cell-based, P. aeruginosa; settings: PAE UFR48
In short: as §1

PAE UFR90 = format: cell-based, P. aeruginosa; settings: PAE UFR90
In short: as §1

SAU 29213 = format: cell-based, S. aureus; settings: SAU 29213
In short: as §1

SPN 49619 = format: cell-based, S. pneumoniae; settings: SPN 49619
In short: as §1

COCC1=C(C(=O)O)N2C(=O)[C@@H](NC(=O)/C(=N\OC)c3csc(N)n3)[C@H]2SC1 [POD, Cefpodoxime, reference compound]
0.125 µg/mL: MIC ATB combined with Example 1 @8 μg/ml (PAE 105250; with Example 1 at 8 μg/ml)
> 512 µg/mL: MIC (ECL P99; antibiotic alone, read-out: MIC ATB alone) | MIC (ECL P99; substance alone, read-out: MIC) | MIC (PAE 105250; Pseudomonas aeruginosa, antibiotic alone, read-out: MIC ATB alone)
<0.031 µg/mL: MIC ATB combined with Example 11 @8 μg/ml (ECL P99; with Example 11 at 8 μg/ml) | MIC ATB combined with Example 12 @8 μg/ml (ECL P99; with Example 12 at 8 μg/ml) | MIC ATB combined with Example 14 @8 μg/ml (ECL P99; with Example 14 at 8 μg/ml) | MIC ATB combined with Example 15 @4 μgml (ECL P99; with Example 15 at 4 μg/ml) | MIC ATB combined with Example 16 @4 μg/ml (ECL P99; with Example 16 at 4 μg/ml) | MIC ATB combined with Example 1 @8 μg/ml (PAE UFR48; with Example 1 at 8 μg/ml) | MIC ATB combined with Example 1 @8 μg/ml (PAE UFR90; with Example 1 at 8 μg/ml) | MIC ATB combined with Example 11 @8 μg/ml (SAU 29213; with Example 11 at 8 μg/ml) | MIC ATB combined with Example 12 @8 μg/ml (SAU 29213; with Example 12 at 8 μg/ml) | MIC ATB combined with Example 14 @8 μg/ml (SAU 29213; with Example 14 at 8 μg/ml) | MIC ATB combined with Example 15 @4 μgml (SAU 29213; with Example 15 at 4 μg/ml) | MIC ATB combined with Example 16 @4 μg/ml (SAU 29213; with Example 16 at 4 μg/ml) | MIC ATB combined with Example 9 @4 μg/ml (SPN 49619; with Example 9 at 4 μg/ml) | MIC ATB combined with Example 12 @8 μg/ml (SPN 49619; with Example 12 at 8 μg/ml) | MIC ATB combined with Example 14 @8 μg/ml (SPN 49619; with Example 14 at 8 μg/ml) | MIC ATB combined with Example 16 @4 μg/ml (SPN 49619; with Example 16 at 4 μg/ml)
2 µg/mL: MIC ATB combined with Example 7 @8 μgml (SAU 29213; with Example 7 at 8 μg/ml) | MIC ATB combined with Example 13 @8 μg/ml (SAU 29213; with Example 13 at 8 μg/ml)
0.063 µg/mL: MIC ATB combined with Example 1 @8 μg/ml (SPN 49619; with Example 1 at 8 μg/ml) | MIC ATB combined with Example 7 @8 μgml (SPN 49619; with Example 7 at 8 μg/ml) | MIC ATB combined with Example 13 @8 μg/ml (SPN 49619; with Example 13 at 8 μg/ml) | MIC (SPN 49619; Streptococcus pneumoniae, antibiotic alone, read-out: MIC ATB alone)
>32 µg/mL: MIC ATB combined with Example 7 @8 μgml (PAE 105250; with Example 7 at 8 μg/ml) | MIC ATB combined with Example 9 @4 μg/ml (PAE 105250; with Example 9 at 4 μg/ml) | MIC ATB combined with Example 11 @8 μg/ml (PAE 105250; with Example 11 at 8 μg/ml) | MIC ATB combined with Example 12 @8 μg/ml (PAE 105250; with Example 12 at 8 μg/ml) | MIC ATB combined with Example 13 @8 μg/ml (PAE 105250; with Example 13 at 8 μg/ml) | MIC ATB combined with Example 14 @8 μg/ml (PAE 105250; with Example 14 at 8 μg/ml) | MIC ATB combined with Example 15 @4 μgml (PAE 105250; with Example 15 at 4 μg/ml) | MIC ATB combined with Example 16 @4 μg/ml (PAE 105250; with Example 16 at 4 μg/ml) | MIC ATB combined with Example 7 @8 μgml (PAE UFR48; with Example 7 at 8 μg/ml) | MIC ATB combined with Example 9 @4 μg/ml (PAE UFR48; with Example 9 at 4 μg/ml) | MIC ATB combined with Example 11 @8 μg/ml (PAE UFR48; with Example 11 at 8 μg/ml) | MIC ATB combined with Example 12 @8 μg/ml (PAE UFR48; with Example 12 at 8 μg/ml) | MIC ATB combined with Example 13 @8 μg/ml (PAE UFR48; with Example 13 at 8 μg/ml) | MIC ATB combined with Example 14 @8 μg/ml (PAE UFR48; with Example 14 at 8 μg/ml) | MIC ATB combined with Example 15 @4 μgml (PAE UFR48; with Example 15 at 4 μg/ml) | MIC ATB combined with Example 16 @4 μg/ml (PAE UFR48; with Example 16 at 4 μg/ml) | MIC ATB combined with Example 7 @8 μgml (PAE UFR90; with Example 7 at 8 μg/ml) | MIC ATB combined with Example 9 @4 μg/ml (PAE UFR90; with Example 9 at 4 μg/ml) | MIC ATB combined with Example 11 @8 μg/ml (PAE UFR90; with Example 11 at 8 μg/ml) | MIC ATB combined with Example 12 @8 μg/ml (PAE UFR90; with Example 12 at 8 μg/ml) | MIC ATB combined with Example 13 @8 μg/ml (PAE UFR90; with Example 13 at 8 μg/ml) | MIC ATB combined with Example 14 @8 μg/ml (PAE UFR90; with Example 14 at 8 μg/ml) | MIC ATB combined with Example 15 @4 μgml (PAE UFR90; with Example 15 at 4 μg/ml) | MIC ATB combined with Example 16 @4 μg/ml (PAE UFR90; with Example 16 at 4 μg/ml)
<=0.031 μg/mL: MIC ATB combined with Example 9 @4 μg/ml (SAU 29213; with Example 9 at 4 μg/ml) | MIC ATB combined with Example 11 @8 μg/ml (SPN 49619; with Example 11 at 8 μg/ml) | MIC ATB combined with Example 15 @4 μgml (SPN 49619; with Example 15 at 4 μg/ml)
4 µg/mL: MIC ATB combined with Example 13 @8 μg/ml (ECL P99; with Example 13 at 8 μg/ml) | MIC ATB combined with Example 1 @8 μg/ml (SAU 29213; with Example 1 at 8 μg/ml) | MIC (SAU 29213; Staphylococcus aureus, antibiotic alone, read-out: MIC ATB alone)
